Consider 18 compounds from patent US11040981B2, “Pyrrolotriazine compounds and methods of inhibiting TAM kinases” (Syros Pharmaceuticals, Inc., priority 2017, dated 2021).

For assay [1], the target named is T1, FLT3 (Homo sapiens, UniProt P36888).
T1 sequence (P36888 27-993): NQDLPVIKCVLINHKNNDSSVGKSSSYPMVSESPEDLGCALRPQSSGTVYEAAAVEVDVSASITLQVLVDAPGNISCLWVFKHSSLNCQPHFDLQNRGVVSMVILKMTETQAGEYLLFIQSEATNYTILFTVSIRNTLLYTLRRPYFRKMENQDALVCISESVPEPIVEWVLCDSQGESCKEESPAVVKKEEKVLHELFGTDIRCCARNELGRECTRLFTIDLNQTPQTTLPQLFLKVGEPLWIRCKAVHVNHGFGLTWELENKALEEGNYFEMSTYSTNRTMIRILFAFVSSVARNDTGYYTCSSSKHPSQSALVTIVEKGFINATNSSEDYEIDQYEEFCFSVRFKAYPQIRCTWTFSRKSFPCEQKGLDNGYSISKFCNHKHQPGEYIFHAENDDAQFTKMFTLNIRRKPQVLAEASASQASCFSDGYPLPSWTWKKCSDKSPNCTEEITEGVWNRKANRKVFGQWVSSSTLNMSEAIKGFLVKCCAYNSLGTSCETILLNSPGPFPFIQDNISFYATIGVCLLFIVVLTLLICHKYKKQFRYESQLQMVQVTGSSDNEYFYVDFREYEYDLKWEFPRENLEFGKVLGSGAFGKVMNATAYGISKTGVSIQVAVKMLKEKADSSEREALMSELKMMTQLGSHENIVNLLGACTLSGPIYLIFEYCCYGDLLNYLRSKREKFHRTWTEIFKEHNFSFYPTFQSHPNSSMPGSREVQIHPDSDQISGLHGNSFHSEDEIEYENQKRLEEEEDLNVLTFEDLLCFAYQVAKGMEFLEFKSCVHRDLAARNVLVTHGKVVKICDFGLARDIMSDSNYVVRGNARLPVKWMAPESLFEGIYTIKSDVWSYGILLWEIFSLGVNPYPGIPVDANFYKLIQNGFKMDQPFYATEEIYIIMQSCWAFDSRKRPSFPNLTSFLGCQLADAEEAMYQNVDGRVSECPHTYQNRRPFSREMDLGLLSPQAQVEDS
The assay is described as follows: TR-FRET kinase activity assay, FLT3. The class given is biochemical. Conditions: ATP at Km, 60 minutes. Put shortly:
(§1)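 Enzyme, fluorescent peptide substrate and compound were mixed, and the reaction was started with ATP at each kinase's Km, in 50 mM HEPES pH 7.5, 10 mM MgCl2, 1 mM EGTA, 0.01% Brij 35, 1 mM DTT at RT. After 60 minutes EDTA quench, Eu-labelled phospho-specific antibody was added for 30 minutes, and IC50 was derived from TR-FRET signal loss.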

For assay [2], the target named is T2, MERTK (Homo sapiens, UniProt Q12866).
T2 sequence (Q12866 21-999): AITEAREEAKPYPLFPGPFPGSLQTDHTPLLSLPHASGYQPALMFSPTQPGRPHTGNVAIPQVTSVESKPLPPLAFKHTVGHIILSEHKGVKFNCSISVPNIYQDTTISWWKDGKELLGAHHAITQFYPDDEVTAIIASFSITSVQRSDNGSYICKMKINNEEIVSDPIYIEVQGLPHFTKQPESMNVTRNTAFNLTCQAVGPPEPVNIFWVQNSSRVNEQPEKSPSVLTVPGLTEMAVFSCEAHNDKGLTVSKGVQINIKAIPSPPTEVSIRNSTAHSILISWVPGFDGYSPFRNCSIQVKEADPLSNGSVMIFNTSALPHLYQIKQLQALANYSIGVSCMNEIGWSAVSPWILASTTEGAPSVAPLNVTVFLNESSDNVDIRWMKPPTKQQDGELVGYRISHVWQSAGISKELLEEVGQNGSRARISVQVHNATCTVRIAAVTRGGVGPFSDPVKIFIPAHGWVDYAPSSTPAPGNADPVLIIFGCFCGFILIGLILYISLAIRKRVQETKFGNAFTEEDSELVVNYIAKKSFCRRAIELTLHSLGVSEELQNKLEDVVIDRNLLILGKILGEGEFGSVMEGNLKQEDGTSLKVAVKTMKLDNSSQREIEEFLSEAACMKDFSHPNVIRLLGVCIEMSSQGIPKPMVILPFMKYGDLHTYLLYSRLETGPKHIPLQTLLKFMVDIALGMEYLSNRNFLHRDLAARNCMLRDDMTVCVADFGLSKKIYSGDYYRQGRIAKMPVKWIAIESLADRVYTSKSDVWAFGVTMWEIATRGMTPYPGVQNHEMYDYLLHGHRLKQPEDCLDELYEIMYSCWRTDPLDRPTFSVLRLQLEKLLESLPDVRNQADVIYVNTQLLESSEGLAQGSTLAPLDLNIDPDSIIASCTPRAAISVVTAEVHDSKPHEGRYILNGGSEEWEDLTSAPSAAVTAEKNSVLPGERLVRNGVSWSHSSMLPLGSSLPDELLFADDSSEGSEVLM
The assay is described as follows: TR-FRET kinase activity assay, MERTK. Format: biochemical. Conditions: for IC50: TR-FRET activity assay, ATP at Km, 60 minutes, read-out: Mer IC50; for FLT3/Mer ratio (FLT3 IC50/Mer IC50): ratio of Mer to FLT3: FLT3 IC50/Mer IC50. Put shortly: as §1

With `COC[C@H](C)Nc1ncc2c(-c3ccnc(N4CCOCC4)c3)cc([C@H]3CC[C@H](O)CC3)n2n1` [Compound 259], the IC50 in assay [1] lay in the range of 100 to 1000 nM. In assay [2], the IC50 is at most 100 nM and the “FLT3/Mer ratio (FLT3 IC50/Mer IC50)” value is given as “+++ (“+++” represents a ratio of >100)”.

With `COC[C@H](C)Nc1ncc2c(-c3cnn(Cc4cccnc4)c3)cc([C@H]3CC[C@H](O)CC3)n2n1` [Compound 220], the values for the IC50 in assay [1] and in assay [2] were 100 to 1000 nM and at most 100 nM, respectively. Besides, in assay [2], the “FLT3/Mer ratio (FLT3 IC50/Mer IC50)” value is given as “+++ (“+++” represents a ratio of >100)”.

As to `COC[C@H](C)Nc1ncc2c(-c3cnn(C(C)(C)CO)c3)cc([C@H]3CC[C@H](O)CC3)n2n1` [Compound 265], in assay [1], the concentration for half-maximal inhibition (IC50) was 1000 to 10000 nM. Moreover, in assay [2], the IC50 was at most 100 nM and the “FLT3/Mer ratio (FLT3 IC50/Mer IC50)” value is reported as “+++ (“+++” represents a ratio of >100)”.

Turning to `COC[C@H](C)Nc1ncc2c(-c3cnn(CC4(C#N)CC4)c3)cc([C@H]3CC[C@H](O)CC3)n2n1` [Compound 266], the IC50 in assay [1] was in the range of 100 to 1000 nM. In assay [2], the IC50 was at most 100 nM and the “FLT3/Mer ratio (FLT3 IC50/Mer IC50)” value is listed as “+++ (“+++” represents a ratio of >100)”.

Compound `C[C@@H](COC(F)F)Nc1ncc2c(-c3cnn(C4COC4)c3)cc([C@H]3CC[C@H](O)CC3)n2n1` [Compound 270] returned an IC50 in assay [1] of at most 100 nM. Moreover, in assay [2], the IC50 is at most 100 nM and the “FLT3/Mer ratio (FLT3 IC50/Mer IC50)” value is “+++ (“+++” represents a ratio of >100)”.

With `Cc1cc(-c2cc([C@H]3CC[C@H](O)CC3)n3nc(N[C@@H](C)CC(F)(F)F)ncc23)cnn1` [Compound 268], the half-maximal inhibitory concentration (IC50) in assay [1] was in the range of 100 to 1000 nM. Besides, in assay [2], the IC50 is at most 100 nM and the “FLT3/Mer ratio (FLT3 IC50/Mer IC50)” value is listed as “+++ (“+++” represents a ratio of >100)”.

In the case of `COCC(C)Nc1ncc2c(-c3ccc4nccn4c3)cc(C3CCC(O)CC3)n2n1` (stereo not drawn) [Compound 193], the results for the IC50 in assay [1] and in assay [2] were 1000 to 10000 nM and at most 100 nM, respectively. Besides, the “FLT3/Mer ratio (FLT3 IC50/Mer IC50)” value in assay [2] was “+++ (“+++” represents a ratio of >100)”.

The compound `COC[C@H](C)Nc1ncc2c(-c3cn(C)nc3C)cc([C@H]3CC[C@H](O)CC3)n2n1` [Compound 260] came in with an IC50 in assay [1] of 100 to 1000 nM. Moreover, in assay [2], the IC50 is at most 100 nM and the “FLT3/Mer ratio (FLT3 IC50/Mer IC50)” value is on record as “+++ (“+++” represents a ratio of >100)”.

As for `COC[C@H](C)Nc1ncc2c(-c3ccc(C(=O)N4CCCC4)cc3)cc([C@H]3CC[C@H](O)CC3)n2n1` [Compound 196], the IC50 in assay [1] is 100 to 1000 nM. Further, in assay [2], the IC50 is at most 100 nM and the “FLT3/Mer ratio (FLT3 IC50/Mer IC50)” value is on record as “+++ (“+++” represents a ratio of >100)”.

Regarding `COC[C@H](C)Nc1ncc2c(-c3cnn([C@@H]4CCOC4)c3)cc([C@H]3CC[C@H](O)CC3)n2n1` [Compound 242], the IC50 in assay [1] was 100 to 1000 nM; in assay [2] it was at most 100 nM. The “FLT3/Mer ratio (FLT3 IC50/Mer IC50)” value in assay [2] is recorded as “+++ (“+++” represents a ratio of >100)”.

In assay [1], `COC[C@H](C)Nc1ncc2c(-c3ccc4c(c3)CNC4=O)cc([C@H]3CC[C@H](O)CC3)n2n1` [Compound 252] had an IC50 of 100 to 1000 nM. In assay [2], the concentration for half-maximal inhibition (IC50) is at most 100 nM and the “FLT3/Mer ratio (FLT3 IC50/Mer IC50)” value was “+++ (“+++” represents a ratio of >100)”.

As to `COC[C@H](C)Nc1ncc2c(-c3cn(C[Si](C)(C)C)nn3)cc([C@H]3CC[C@H](O)CC3)n2n1` [Compound 248], the IC50 in assay [1] was 1000 to 10000 nM; in assay [2], at most 100 nM. In addition, the “FLT3/Mer ratio (FLT3 IC50/Mer IC50)” value in assay [2] was “+++ (“+++” represents a ratio of >100)”.

Consider `COC[C@H](C)Nc1ncc2c(-c3cc(C)ccn3)cc([C@H]3CC[C@H](O)CC3)n2n1` [Compound 257], for which the IC50 in assay [1] lay within 1000 to 10000 nM. Moreover, in assay [2], the IC50 is at most 100 nM and the “FLT3/Mer ratio (FLT3 IC50/Mer IC50)” value is given as “+++ (“+++” represents a ratio of >100)”.

Compound `COC[C@H](C)Nc1ncc2c(-c3cnn(C(C)(C)C)c3)cc([C@H]3CC[C@H](O)CC3)n2n1` [Compound 206] returned an IC50 in assay [1] of 1000 to 10000 nM. In addition, in assay [2], the IC50 was at most 100 nM and the “FLT3/Mer ratio (FLT3 IC50/Mer IC50)” value is reported as “+++ (“+++” represents a ratio of >100)”.

As to `C[C@H](Nc1ncc2c(-c3ccc(CN4CCOCC4)cc3)cc([C@H]3CC[C@H](O)CC3)n2n1)[C@H]1CCCO1` [Compound 204], the IC50 in assay [1] was in the range of 1000 to 10000 nM. Further, in assay [2], the IC50 was 100 to 1000 nM; the “FLT3/Mer ratio (FLT3 IC50/Mer IC50)” value was “++ (“++” represents a ratio of between 10 and 100)”.

`CNC(=O)Cn1cc(-c2cc([C@H]3CC[C@H](O)CC3)n3nc(N[C@@H](C)COC)ncc23)cn1` [Compound 241] gave an IC50 in assay [1] of 100 to 1000 nM. Moreover, in assay [2], the IC50 is at most 100 nM and the “FLT3/Mer ratio (FLT3 IC50/Mer IC50)” value is listed as “+++ (“+++” represents a ratio of >100)”.

Compound `COC[C@H](C)Nc1ncc2c(-c3ccc(N4CCOCC4)nc3)cc([C@H]3CC[C@H](O)CC3)n2n1` [Compound 254] registered an IC50 in assay [1] of 100 to 1000 nM. In addition, in assay [2], the IC50 was at most 100 nM and the “FLT3/Mer ratio (FLT3 IC50/Mer IC50)” value is listed as “+++ (“+++” represents a ratio of >100)”.

For `C[C@@H](CC(F)(F)F)Nc1ncc2c(-c3ccc(CN4CCOCC4)cc3)cc([C@H]3CC[C@H](O)CC3)n2n1` [Compound 203], in assay [1], the IC50 was at most 100 nM. In assay [2], the 50% inhibitory concentration (IC50) is at most 100 nM; the “FLT3/Mer ratio (FLT3 IC50/Mer IC50)” value is “++ (“++” represents a ratio of between 10 and 100)”.
